The target of experiment [1] is Vascular endothelial growth factor receptor 3 (Homo sapiens) (UniProt P35916). Briefly: Inhibition of FLT4 (unknown origin) at 10 uM after 120 mins P33 radiolabeled kinase activity assay.
In experiment [2] the target is Homeodomain-interacting protein kinase 2 (Homo sapiens) (UniProt Q9H2X6). Nature of the experiment: Inhibition of HIPK2 (unknown origin) at 10 uM after 120 mins P33 radiolabeled kinase activity assay.
In experiment [3] the target is T1, Receptor-interacting serine/threonine-protein kinase 1 (Homo sapiens) (UniProt Q13546).
T1 sequence (whole entry): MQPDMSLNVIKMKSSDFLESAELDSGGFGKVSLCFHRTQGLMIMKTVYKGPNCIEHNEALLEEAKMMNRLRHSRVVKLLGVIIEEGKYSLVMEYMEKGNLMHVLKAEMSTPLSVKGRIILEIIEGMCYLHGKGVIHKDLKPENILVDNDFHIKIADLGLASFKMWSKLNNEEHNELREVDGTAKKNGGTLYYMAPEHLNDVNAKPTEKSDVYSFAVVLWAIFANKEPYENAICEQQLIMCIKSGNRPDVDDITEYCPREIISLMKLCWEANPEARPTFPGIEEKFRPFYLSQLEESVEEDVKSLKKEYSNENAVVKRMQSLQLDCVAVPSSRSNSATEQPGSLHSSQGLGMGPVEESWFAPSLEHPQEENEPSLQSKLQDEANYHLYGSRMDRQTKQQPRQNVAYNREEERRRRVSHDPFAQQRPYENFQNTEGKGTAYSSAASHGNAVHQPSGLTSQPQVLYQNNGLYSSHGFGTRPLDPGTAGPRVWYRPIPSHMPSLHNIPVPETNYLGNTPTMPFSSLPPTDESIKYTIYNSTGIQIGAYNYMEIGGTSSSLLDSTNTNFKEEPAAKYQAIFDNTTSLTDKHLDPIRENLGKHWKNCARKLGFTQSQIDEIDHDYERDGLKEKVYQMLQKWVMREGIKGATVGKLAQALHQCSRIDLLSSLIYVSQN
Nature of the experiment: Inhibition of RIP (unknown origin) at 10 uM after 120 mins P33 radiolabeled kinase activity assay.

The target in experiment [4] is Rho-associated protein kinase 2 (Homo sapiens) (UniProt O75116). Briefly: Inhibition of ROCK2 (unknown origin) at 10 uM after 120 mins P33 radiolabeled kinase activity assay.
Experiment [5] addresses T2, Myosin light chain kinase (Homo sapiens) (UniProt Q32MK0).
T2 sequence (whole entry): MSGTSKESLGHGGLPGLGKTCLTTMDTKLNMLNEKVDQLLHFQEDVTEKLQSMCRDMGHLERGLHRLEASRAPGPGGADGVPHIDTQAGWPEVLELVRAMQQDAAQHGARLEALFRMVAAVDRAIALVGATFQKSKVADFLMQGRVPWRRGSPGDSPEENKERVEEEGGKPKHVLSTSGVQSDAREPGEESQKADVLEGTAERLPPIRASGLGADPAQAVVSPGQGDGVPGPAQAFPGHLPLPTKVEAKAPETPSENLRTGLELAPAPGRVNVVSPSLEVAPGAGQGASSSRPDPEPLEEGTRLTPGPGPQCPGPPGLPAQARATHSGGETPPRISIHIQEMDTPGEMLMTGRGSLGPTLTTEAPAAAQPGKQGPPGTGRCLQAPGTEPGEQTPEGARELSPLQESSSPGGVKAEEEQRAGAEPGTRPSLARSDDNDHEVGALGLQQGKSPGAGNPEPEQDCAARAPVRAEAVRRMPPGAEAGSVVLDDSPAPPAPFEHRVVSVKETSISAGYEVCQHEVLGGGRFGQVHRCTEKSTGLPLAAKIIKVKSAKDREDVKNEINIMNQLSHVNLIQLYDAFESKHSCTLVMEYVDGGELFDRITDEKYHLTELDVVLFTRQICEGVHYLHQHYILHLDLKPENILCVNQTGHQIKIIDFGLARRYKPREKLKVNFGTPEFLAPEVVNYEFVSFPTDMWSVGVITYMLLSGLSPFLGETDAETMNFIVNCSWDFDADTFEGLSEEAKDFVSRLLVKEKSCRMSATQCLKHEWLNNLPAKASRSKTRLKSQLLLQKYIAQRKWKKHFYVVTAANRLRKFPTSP
Nature of the experiment: Inhibition of MYLK3 (unknown origin) at 10 uM after 120 mins P33 radiolabeled kinase activity assay.

For experiment [6], the target named is High affinity nerve growth factor receptor (Homo sapiens) (UniProt P04629). Briefly: Inhibition of TRKA (unknown origin) at 10 uM after 120 mins P33 radiolabeled kinase activity assay.
For experiment [7], the target named is T3, NUAK family SNF1-like kinase 1 (Homo sapiens) (UniProt O60285).
T3 sequence (whole entry): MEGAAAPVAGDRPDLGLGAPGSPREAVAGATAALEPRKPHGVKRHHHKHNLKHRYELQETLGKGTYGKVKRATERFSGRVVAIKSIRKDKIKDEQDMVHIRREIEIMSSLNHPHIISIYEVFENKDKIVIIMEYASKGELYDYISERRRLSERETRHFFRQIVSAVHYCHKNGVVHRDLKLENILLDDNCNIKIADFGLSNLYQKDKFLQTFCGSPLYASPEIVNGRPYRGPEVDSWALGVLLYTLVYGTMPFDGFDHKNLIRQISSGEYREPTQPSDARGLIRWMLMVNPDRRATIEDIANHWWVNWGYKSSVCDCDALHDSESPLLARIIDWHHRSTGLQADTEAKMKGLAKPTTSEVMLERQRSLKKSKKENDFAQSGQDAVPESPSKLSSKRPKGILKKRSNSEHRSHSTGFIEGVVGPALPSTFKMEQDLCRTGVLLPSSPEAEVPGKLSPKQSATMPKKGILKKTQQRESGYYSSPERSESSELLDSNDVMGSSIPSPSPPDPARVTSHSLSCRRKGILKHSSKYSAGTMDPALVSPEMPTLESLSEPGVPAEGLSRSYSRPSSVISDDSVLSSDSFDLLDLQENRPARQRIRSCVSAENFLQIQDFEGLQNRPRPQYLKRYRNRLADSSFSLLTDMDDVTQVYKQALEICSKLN
Briefly: Inhibition of ARK5 (unknown origin) at 10 uM after 120 mins P33 radiolabeled kinase activity assay.

Experiment [8] addresses Receptor-interacting serine/threonine-protein kinase 2 (Homo sapiens, UniProt O43353). Nature of the experiment: Inhibition of full-length FLAG-6His-TEV tagged human RIP2 expressed in Sf9 cells assessed as residence time by fluorescent polarization assay.
Experiment [9] deals with CDK1/Cyclin A (Homo sapiens) (UniProt P06493+P20248). Briefly: Inhibition of CDK1/cyclin A (unknown origin) at 10 uM after 120 mins P33 radiolabeled kinase activity assay. Format: protein-complex assay.

SMILES strings stand for the structures.

Homeodomain-interacting protein kinase 2 (Homo sapiens), sequence (Q9H2X6 whole entry, looked up): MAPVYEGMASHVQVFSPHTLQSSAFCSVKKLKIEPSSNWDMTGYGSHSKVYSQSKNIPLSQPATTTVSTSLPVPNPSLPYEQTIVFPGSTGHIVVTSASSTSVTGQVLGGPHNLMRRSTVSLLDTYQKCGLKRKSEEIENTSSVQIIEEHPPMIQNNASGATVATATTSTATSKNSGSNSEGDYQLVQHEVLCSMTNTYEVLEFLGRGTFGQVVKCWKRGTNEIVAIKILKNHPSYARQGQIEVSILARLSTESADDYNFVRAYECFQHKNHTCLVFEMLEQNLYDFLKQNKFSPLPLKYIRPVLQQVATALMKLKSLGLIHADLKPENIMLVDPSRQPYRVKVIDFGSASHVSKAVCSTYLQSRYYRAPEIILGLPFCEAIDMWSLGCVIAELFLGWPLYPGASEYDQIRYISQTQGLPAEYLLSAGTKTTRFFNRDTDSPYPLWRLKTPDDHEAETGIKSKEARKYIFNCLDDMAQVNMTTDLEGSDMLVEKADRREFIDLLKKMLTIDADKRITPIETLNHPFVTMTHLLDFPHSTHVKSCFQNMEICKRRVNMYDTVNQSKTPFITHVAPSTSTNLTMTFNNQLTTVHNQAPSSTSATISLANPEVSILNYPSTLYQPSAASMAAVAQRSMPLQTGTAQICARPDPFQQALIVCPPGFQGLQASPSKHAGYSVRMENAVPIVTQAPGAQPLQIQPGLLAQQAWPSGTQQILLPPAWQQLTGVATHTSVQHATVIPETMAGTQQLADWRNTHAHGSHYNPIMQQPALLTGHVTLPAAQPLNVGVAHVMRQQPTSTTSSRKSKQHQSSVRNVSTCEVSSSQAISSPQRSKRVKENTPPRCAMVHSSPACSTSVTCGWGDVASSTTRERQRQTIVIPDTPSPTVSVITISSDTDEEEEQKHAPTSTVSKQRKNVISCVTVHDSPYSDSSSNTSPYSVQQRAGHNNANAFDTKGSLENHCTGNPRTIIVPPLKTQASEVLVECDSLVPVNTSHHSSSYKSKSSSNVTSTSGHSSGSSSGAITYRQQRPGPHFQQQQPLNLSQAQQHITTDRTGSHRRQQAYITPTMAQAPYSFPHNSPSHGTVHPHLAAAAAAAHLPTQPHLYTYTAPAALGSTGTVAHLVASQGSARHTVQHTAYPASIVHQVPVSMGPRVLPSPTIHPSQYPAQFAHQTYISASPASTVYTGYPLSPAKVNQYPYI
Rho-associated protein kinase 2 (Homo sapiens), sequence (O75116 whole entry, looked up): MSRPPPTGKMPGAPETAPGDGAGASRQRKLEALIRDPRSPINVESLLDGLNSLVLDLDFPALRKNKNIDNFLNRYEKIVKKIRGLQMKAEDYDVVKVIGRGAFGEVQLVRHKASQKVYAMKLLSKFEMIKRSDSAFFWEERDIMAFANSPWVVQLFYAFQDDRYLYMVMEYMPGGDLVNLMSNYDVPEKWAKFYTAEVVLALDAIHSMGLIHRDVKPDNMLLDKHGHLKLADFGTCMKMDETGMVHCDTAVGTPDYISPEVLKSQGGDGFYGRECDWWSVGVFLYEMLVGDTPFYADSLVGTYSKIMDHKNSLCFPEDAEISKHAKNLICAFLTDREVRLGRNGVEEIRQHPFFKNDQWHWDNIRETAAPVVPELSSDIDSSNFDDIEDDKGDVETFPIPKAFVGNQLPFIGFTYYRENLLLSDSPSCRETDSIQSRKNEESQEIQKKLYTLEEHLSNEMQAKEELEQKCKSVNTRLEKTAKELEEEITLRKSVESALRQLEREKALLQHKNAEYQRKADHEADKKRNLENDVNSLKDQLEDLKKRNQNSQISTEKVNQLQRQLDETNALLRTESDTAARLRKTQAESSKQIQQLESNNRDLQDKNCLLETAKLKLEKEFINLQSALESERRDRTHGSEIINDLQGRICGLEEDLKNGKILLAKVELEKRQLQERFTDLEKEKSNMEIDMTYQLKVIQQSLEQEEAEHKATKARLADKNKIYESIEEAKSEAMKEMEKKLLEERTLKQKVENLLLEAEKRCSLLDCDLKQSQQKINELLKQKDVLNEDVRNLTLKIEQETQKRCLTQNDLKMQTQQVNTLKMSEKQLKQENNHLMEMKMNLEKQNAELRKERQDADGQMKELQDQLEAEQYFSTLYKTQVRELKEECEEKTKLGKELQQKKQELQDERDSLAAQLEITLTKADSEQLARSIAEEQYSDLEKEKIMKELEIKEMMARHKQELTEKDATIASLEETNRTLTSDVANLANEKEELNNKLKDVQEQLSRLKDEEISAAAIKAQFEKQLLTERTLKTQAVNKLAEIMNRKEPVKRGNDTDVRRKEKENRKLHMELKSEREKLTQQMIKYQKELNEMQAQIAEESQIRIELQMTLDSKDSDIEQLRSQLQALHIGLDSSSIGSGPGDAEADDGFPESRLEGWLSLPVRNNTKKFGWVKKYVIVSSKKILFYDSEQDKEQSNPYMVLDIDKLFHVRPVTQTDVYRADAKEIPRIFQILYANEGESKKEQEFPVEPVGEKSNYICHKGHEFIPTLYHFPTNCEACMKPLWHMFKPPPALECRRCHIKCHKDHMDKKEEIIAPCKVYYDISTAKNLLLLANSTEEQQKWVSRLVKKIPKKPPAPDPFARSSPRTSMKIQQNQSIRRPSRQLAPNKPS
High affinity nerve growth factor receptor (Homo sapiens), sequence (P04629 33-796 limits assumed): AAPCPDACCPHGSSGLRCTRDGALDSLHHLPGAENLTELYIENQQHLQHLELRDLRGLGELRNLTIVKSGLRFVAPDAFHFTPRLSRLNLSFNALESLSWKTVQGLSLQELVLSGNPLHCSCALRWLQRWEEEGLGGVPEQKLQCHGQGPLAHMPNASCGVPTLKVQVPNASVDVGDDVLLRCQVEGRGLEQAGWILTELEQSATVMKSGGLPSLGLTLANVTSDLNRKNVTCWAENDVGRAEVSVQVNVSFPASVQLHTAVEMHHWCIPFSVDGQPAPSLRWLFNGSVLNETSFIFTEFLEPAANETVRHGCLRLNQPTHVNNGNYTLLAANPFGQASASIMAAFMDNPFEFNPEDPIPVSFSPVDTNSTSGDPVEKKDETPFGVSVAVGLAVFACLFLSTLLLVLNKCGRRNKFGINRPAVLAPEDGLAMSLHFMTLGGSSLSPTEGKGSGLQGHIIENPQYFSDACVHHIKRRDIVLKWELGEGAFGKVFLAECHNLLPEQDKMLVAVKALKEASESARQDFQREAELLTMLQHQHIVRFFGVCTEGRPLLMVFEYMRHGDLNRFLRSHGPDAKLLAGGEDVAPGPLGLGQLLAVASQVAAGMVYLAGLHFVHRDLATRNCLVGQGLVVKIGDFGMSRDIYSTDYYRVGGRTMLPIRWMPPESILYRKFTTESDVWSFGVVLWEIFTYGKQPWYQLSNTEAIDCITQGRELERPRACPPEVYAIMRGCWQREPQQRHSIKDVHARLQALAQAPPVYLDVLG
CDK1/Cyclin A (Homo sapiens), sequence (P06493 whole entry, looked up): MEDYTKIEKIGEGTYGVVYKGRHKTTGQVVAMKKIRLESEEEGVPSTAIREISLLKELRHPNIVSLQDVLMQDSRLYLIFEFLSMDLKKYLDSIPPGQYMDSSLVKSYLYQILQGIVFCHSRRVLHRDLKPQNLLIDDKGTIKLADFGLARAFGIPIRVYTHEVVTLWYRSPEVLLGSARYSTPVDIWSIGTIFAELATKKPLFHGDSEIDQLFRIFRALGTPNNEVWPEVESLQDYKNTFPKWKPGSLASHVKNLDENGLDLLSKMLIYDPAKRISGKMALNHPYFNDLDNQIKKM
CDK1/Cyclin A (Homo sapiens), sequence (P20248 whole entry, looked up): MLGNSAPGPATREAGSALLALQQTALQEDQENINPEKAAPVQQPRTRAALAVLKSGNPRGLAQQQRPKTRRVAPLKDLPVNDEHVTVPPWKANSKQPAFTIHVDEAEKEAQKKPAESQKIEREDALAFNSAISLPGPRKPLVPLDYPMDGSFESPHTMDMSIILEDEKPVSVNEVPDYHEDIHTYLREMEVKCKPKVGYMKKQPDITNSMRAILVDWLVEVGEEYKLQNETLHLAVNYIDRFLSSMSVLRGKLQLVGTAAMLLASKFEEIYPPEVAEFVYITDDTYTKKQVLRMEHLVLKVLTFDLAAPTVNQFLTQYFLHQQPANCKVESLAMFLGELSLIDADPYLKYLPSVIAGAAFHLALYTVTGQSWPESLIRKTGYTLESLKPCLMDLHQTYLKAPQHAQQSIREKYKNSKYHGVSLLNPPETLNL
Receptor-interacting serine/threonine-protein kinase 2, sequence (O43353 whole entry): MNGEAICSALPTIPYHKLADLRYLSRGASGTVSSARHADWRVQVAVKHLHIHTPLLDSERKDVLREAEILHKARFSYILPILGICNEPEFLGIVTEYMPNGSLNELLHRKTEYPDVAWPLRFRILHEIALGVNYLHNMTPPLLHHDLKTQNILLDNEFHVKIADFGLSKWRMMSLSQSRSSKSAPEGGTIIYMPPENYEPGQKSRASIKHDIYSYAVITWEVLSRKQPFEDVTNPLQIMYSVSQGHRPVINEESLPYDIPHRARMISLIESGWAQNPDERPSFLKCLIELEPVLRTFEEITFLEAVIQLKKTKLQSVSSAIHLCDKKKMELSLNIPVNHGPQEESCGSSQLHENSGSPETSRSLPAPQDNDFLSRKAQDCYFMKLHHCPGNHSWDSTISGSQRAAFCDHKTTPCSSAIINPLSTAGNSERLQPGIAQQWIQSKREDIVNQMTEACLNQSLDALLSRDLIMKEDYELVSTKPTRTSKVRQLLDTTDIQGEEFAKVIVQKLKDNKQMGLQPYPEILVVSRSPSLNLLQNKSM

With `CS(=O)(=O)c1cccc(Nc2nccc(-c3sc(N4CCOCC4)nc3-c3cccc(NS(=O)(=O)c4c(F)cccc4F)c3)n2)c1`, the inhibition in experiment [1] was 99.5%; in experiment [2], 91.4%; in experiment [3], 54.4%; in experiment [4], 14.8%; in experiment [5], -2.12%; in experiment [6], 39.8%. Also, the values for the inhibition in [7] and in experiment [9] were 41.1% and 34.2%, respectively. Besides, in [8], the T1/2 came to 1.32 h.

Regarding `CC(C)(C)c1cc(NC(=O)Nc2ccc(Oc3ccncc3)cc2)no1`, the inhibition is 98.9% in experiment [1]; 18.1% in [2]; 53.2% in experiment [3]; 59.1% in experiment [4]; -2.01% in [5]; 97.2% in experiment [6]. Moreover, the figures for the inhibition in experiment [7] and in [9] were -0.15% and 7.46%, respectively. Moreover, in experiment [8], the T1/2 amounted to 1.42 h.

Consider `COCCNC(=O)c1ccc2c(c1)nc(-c1cnc(-c3ccc(Cl)cc3)[nH]1)n2CCOC`, for which the inhibition is 13.7% in experiment [1]; -4.82% in experiment [2]; 33.1% in experiment [3]; 6.87% in experiment [4]; -0.74% in experiment [5]; 5.11% in experiment [6]. For the same compound, the inhibition was 7.6% in [7] and -6.11% in [9]. Also, the T1/2 in experiment [8] was 0.00167 h.

For the origin of these results see ChEMBL document CHEMBL3627608, “Crystal structures of human RIP2 kinase catalytic domain complexed with ATP-competitive inhibitors: Foundations for understanding inhibitor selectivity” (Bioorg Med Chem, 2015).
